These results are taken from patent US10308643B2, “Heterocyclic compound” (Takeda Pharmaceutical Company Limited, priority 2015, dated 2019).

Holding throughout (type): biochemical
One test has as its target T1, HDAC6 enzyme (Homo sapiens, UniProt Q9UBN7).
T1 construct: transducing full length HDAC1 and HDAC6 genes into Sf-9 insect cells; GST; purchased SignalChem; host or cells: Sf-9 insect cells
T1 sequence (Q9UBN7 1-1215): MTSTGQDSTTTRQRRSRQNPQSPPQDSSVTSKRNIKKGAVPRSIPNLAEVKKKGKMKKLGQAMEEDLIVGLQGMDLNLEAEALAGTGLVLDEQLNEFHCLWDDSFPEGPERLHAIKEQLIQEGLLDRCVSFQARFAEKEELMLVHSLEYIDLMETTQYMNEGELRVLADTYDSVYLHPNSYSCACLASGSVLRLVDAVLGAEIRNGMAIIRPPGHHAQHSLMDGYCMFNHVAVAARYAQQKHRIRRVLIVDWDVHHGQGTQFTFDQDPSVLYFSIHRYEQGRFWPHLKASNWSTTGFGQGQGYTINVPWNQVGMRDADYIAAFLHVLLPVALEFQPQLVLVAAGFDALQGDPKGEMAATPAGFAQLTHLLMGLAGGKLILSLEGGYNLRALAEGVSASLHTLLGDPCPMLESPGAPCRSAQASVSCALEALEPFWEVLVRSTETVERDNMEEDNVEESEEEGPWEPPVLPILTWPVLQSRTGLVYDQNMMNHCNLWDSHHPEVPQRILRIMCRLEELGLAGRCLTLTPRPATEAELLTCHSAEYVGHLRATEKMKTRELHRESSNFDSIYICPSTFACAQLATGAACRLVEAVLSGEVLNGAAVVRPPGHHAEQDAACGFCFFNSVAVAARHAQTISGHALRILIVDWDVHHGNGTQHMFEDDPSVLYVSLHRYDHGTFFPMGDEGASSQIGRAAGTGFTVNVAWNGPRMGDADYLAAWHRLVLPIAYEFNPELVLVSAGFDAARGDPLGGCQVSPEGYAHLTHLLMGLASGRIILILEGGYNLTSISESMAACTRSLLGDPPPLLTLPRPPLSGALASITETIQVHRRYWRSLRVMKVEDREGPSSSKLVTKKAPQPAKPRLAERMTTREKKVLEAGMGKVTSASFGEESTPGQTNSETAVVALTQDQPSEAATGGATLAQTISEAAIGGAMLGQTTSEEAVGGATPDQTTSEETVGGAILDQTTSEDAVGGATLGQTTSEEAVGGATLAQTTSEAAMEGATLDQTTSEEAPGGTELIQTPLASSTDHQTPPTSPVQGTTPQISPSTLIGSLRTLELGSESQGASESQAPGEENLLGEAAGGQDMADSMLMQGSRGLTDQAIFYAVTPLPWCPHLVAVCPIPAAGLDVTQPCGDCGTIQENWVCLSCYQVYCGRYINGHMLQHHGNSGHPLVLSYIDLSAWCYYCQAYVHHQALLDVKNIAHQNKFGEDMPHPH
Briefly: HDAC1/6 Enzyme Inhibitory Assay (HDAC-Glo I/II Assay kit), HDAC6. As to conditions: 1 μM test compound, wells without enzyme = 100% inhibition; for inhibition at 1 µM: read-out: HDAC6 inhibitory rate (%) (1 μM). In short, it runs like this:
(§1)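 Full-length human HDAC1 or HDAC6, expressed in Sf-9 cells and GST-purified, was preincubated with compound for 60 min at room temperature in Tris-HCl pH 7.5 buffer with MgCl2, KCl, NaCl, glutathione and Tween-20. HDAC-Glo substrate-developer was then added, and luminescence was read after 20 min. Inhibition was referenced to no-enzyme wells as 100%.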

Another test addresses T2, HDAC1 enzyme (Homo sapiens, UniProt Q13547).
T2 construct: transducing full length HDAC1 and HDAC6 genes into Sf-9 insect cells; GST; purchased SignalChem; host or cells: Sf-9 insect cells
Briefly: HDAC1/6 Enzyme Inhibitory Assay (HDAC-Glo I/II Assay kit), HDAC1. As to conditions: 1 μM test compound, wells without enzyme = 100% inhibition; for inhibition at 1 µM: read-out: HDAC1 inhibitory rate (%) (1 μM). In short, it runs like this: as §1

The next test concerns the target T3, HDAC9 enzyme (Homo sapiens, UniProt Q9UKV0).
T3 construct: transducing full length HDAC9 gene into Sf-9 insect cells; made in house; host or cells: Sf-9 insect cells
The experiment in a line: HDAC9 Enzyme Inhibitory Assay (HDAC-Glo class IIa). The note with it: 1 μM test compound, wells without enzyme = 100% inhibition; for inhibition at 1 µM: read-out: HDAC9 inhibitory rate (%) (1 μM). In short, it runs like this: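 Luminescent HDAC-Glo class IIa readout after a 20 min room-temperature reaction; relative inhibition referenced to enzyme-free wells as 100%. Test compound first preincubated 60 min with Sf-9-expressed, Ni-NTA-purified full-length HDAC9 in pH 7.5 Tris buffer containing 135 mM NaCl, 0.6 mM glutathione and 0.01% Tween-20.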

T3 sequence (Q9UKV0 whole entry, species assumed): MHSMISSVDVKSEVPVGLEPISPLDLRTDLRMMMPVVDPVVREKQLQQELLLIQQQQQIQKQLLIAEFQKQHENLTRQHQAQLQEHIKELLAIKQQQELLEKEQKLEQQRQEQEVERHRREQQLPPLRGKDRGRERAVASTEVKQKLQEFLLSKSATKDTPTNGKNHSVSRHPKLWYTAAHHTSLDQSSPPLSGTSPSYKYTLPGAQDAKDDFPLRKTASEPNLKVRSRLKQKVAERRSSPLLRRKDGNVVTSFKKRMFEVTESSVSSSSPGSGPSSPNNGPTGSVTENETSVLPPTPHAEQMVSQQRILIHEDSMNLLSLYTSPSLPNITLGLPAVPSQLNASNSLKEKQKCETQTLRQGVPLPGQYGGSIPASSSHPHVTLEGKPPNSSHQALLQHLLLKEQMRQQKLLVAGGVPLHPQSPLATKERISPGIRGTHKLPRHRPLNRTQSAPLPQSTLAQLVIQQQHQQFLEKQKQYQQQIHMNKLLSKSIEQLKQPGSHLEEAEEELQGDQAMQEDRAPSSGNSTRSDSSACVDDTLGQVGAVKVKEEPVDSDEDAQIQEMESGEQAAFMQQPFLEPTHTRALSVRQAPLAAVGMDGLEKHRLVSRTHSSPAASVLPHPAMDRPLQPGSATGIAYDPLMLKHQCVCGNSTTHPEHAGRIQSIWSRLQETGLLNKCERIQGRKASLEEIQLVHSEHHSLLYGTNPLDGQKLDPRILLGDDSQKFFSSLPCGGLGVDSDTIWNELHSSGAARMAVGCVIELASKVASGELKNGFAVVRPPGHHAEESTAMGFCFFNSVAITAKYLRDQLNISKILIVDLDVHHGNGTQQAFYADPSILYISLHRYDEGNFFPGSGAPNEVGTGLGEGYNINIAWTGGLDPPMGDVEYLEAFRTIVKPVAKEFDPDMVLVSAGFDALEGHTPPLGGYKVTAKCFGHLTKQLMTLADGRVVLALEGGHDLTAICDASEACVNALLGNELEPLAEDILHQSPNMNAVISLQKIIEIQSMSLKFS
T2 sequence (Q13547 whole entry): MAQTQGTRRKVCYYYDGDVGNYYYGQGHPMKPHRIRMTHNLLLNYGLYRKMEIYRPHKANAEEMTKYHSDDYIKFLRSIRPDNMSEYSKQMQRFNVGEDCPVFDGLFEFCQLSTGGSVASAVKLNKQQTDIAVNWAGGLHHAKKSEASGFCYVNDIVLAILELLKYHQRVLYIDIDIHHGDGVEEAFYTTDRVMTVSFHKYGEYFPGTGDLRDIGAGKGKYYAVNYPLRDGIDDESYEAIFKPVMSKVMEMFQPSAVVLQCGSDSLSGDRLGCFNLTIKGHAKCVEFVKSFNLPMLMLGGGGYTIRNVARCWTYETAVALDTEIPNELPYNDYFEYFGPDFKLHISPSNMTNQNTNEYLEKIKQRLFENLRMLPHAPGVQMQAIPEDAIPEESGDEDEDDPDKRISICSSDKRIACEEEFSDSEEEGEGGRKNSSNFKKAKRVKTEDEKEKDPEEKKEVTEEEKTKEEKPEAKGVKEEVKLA

Turning to `O=C(CCC(F)F)N[C@@H]1CCCC[C@H]1N1Cc2ccc(-c3noc(C(F)(F)F)n3)cc2C1=O` [Example 126, 4,4-difluoro-N-((1R,2R)-2-(1-oxo-6-(5-(trifluoromethyl)-1,2,4-oxadiazol-3-yl)-1,3-dihydro-2H-isoindol-2-yl)cyclohexyl)butanamide], the results for the inhibition at 1 µM at HDAC6 enzyme, on HDAC1 enzyme and at HDAC9 enzyme were 100%, 10% and 59%, respectively.

In the case of `O=C(N[C@@H]1CCCC[C@H]1N1Cc2ccc(-c3noc(C(F)(F)F)n3)cc2C1=O)C1COC1` [Example 127, N-((1R,2R)-2-(1-oxo-6-(5-(trifluoromethyl)-1,2,4-oxadiazol-3-yl)-1,3-dihydro-2H-isoindol-2-yl)cyclohexyl)oxetane-3-carboxamide], the inhibition at 1 µM on HDAC6 enzyme amounted to 99%; on HDAC1 enzyme, 5%; on HDAC9 enzyme, 47%.

`O=C1CC[C@@H](C(=O)N[C@@H]2CCCC[C@H]2N2Cc3ccc(-c4noc(C(F)(F)F)n4)cc3C2=O)N1` [Example 128, 5-oxo-N-((1R,2R)-2-(1-oxo-6-(5-(trifluoromethyl)-1,2,4-oxadiazol-3-yl)-1,3-dihydro-2H-isoindol-2-yl)cyclohexyl)-L-prolinamide]: the values for the inhibition at 1 µM at HDAC6 enzyme, at HDAC1 enzyme and on HDAC9 enzyme were 92%, -3% and 39%, respectively.

With `O=C(N[C@@H]1CCCC[C@H]1N1Cc2ccc(-c3noc(C(F)(F)F)n3)cc2C1=O)[C@H]1CCCO1` [Example 129, (2R)-N-((1R,2R)-2-(1-oxo-6-(5-(trifluoromethyl)-1,2,4-oxadiazol-3-yl)-1,3-dihydro-2H-isoindol-2-yl)cyclohexyl)tetrahydrofuran-2-carboxamide], the values for the inhibition at 1 µM on HDAC6 enzyme, at HDAC1 enzyme and at HDAC9 enzyme were 100%, 9% and 45%, respectively.

As to `O=C1C[C@H](C(=O)N[C@@H]2CCCC[C@H]2N2Cc3ccc(-c4noc(C(F)(F)F)n4)cc3C2=O)CN1` [Example 130, (3S)-5-oxo-N-((1R,2R)-2-(1-oxo-6-(5-(trifluoromethyl)-1,2,4-oxadiazol-3-yl)-1,3-dihydro-2H-isoindol-2-yl)cyclohexyl)pyrrolidine-3-carboxamide], the results for the inhibition at 1 µM at HDAC6 enzyme, on HDAC1 enzyme and at HDAC9 enzyme were 86%, 0% and 30%, respectively.

For `O=C(N[C@@H]1CCCC[C@H]1N1Cc2ccc(-c3noc(C(F)(F)F)n3)cc2C1=O)C1CC1F` (stereo partly drawn) [Example 132, 2-fluoro-N-((1R,2R)-2-(1-oxo-6-(5-(trifluoromethyl)-1,2,4-oxadiazol-3-yl)-1,3-dihydro-2H-isoindol-2-yl)cyclohexyl)cyclopropanecarboxamide], the results for the inhibition at 1 µM on HDAC6 enzyme, at HDAC1 enzyme and at HDAC9 enzyme were 99%, 5% and 55%, respectively.

As for `O=C(N[C@@H]1CCCC[C@H]1N1Cc2ccc(-c3noc(C(F)(F)F)n3)cc2C1=O)C1CCCCCO1` (stereo partly drawn) [Example 133, N-((1R,2R)-2-(1-oxo-6-(5-(trifluoromethyl)-1,2,4-oxadiazol-3-yl)-1,3-dihydro-2H-isoindol-2-yl)cyclohexyl)oxepane-2-carboxamide], on HDAC6 enzyme (1 µM), the “HDAC6 inhibitory rate (%) (1 μM)” value is recorded as 99%. Moreover, the “HDAC1 inhibitory rate (%) (1 μM)” value at HDAC1 enzyme (1 µM) was found to be 9%. On HDAC9 enzyme, the “HDAC9 inhibitory rate (%) (1 μM)” value is listed as 38%.

Consider `O=C1c2cc(-c3noc(C(F)(F)F)n3)ccc2CN1[C@@H]1CCCC[C@H]1NC(=O)C1(c2ccccc2)COC1` [Example 134, N-((1R,2R)-2-(1-oxo-6-(5-(trifluoromethyl)-1,2,4-oxadiazol-3-yl)-1,3-dihydro-2H-isoindol-2-yl)cyclohexyl)-3-phenyloxetane-3-carboxamide], for which the inhibition at 1 µM is 99% on HDAC6 enzyme, -5% on HDAC1 enzyme and 36% on HDAC9 enzyme.

For `CCC1(C(=O)N[C@@H]2CCCC[C@H]2N2Cc3ccc(-c4noc(C(F)(F)F)n4)cc3C2=O)COC1` [Example 138, 3-ethyl-N-((1R,2R)-2-(1-oxo-6-(5-(trifluoromethyl)-1,2,4-oxadiazol-3-yl)-1,3-dihydro-2H-isoindol-2-yl)cyclohexyl)oxetane-3-carboxamide], the inhibition at 1 µM at HDAC6 enzyme came out at 97%; at HDAC1 enzyme it was 2%; at HDAC9 enzyme, 55%.

Consider `O=C(N[C@@H]1CCCC[C@H]1N1Cc2ccc(-c3noc(C(F)(F)F)n3)cc2C1=O)N1CCOCC1` [Example 139, N-((1R,2R)-2-(1-oxo-6-(5-(trifluoromethyl)-1,2,4-oxadiazol-3-yl)-1,3-dihydro-2H-isoindol-2-yl)cyclohexyl)morpholine-4-carboxamide], for which the values for the inhibition at 1 µM at HDAC6 enzyme, on HDAC1 enzyme and at HDAC9 enzyme were 98%, 5% and 25%, respectively.

`CC(C)(C)OC(=O)N[C@@H]1CCC[C@H]1N1Cc2ccc(-c3noc(C(F)(F)F)n3)cc2C1=O` [Example 140, tert-butyl ((1R,2R)-2-(1-oxo-6-(5-(trifluoromethyl)-1,2,4-oxadiazol-3-yl)-1,3-dihydro-2H-isoindol-2-yl)cyclopentyl)carbamate]: the inhibition at 1 µM was 39% on HDAC6 enzyme, 27% on HDAC1 enzyme and 41% on HDAC9 enzyme.

On to `CC(C)(C)OC(=O)N[C@H]1CCC[C@@H]1N1Cc2ccc(-c3noc(C(F)(F)F)n3)cc2C1=O` [Example 141, tert-butyl ((1S,2S)-2-(1-oxo-6-(5-(trifluoromethyl)-1,2,4-oxadiazol-3-yl)-1,3-dihydro-2H-isoindol-2-yl)cyclopentyl)carbamate], for which the inhibition at 1 µM on HDAC6 enzyme amounted to 42%; at HDAC1 enzyme, 28%; at HDAC9 enzyme, 43%.

With `N[C@@H]1CCC[C@H]1N1Cc2ccc(-c3noc(C(F)(F)F)n3)cc2C1=O` [Example 142, 2-((1R,2R)-2-aminocyclopentyl)-6-(5-(trifluoromethyl)-1,2,4-oxadiazol-3-yl)isoindolin-1-one], the results for the inhibition at 1 µM on HDAC6 enzyme, at HDAC1 enzyme and on HDAC9 enzyme were -3%, -6% and 54%, respectively.

In the case of `N[C@H]1CCC[C@@H]1N1Cc2ccc(-c3noc(C(F)(F)F)n3)cc2C1=O` [Example 143, 2-((1S,2S)-2-aminocyclopentyl)-6-(5-(trifluoromethyl)-1,2,4-oxadiazol-3-yl)isoindolin-1-one], the values for the inhibition at 1 µM on HDAC6 enzyme, on HDAC1 enzyme and at HDAC9 enzyme were -4%, -1% and 52%, respectively.

On to `O=C(N[C@@H]1CCCC[C@H]1N1Cc2ccc(-c3noc(C(F)(F)F)n3)cc2C1=O)N1C2COCC1C2` [Example 144, N-((1R,2R)-2-(1-oxo-6-(5-(trifluoromethyl)-1,2,4-oxadiazol-3-yl)-1,3-dihydro-2H-isoindol-2-yl)cyclohexyl)-3-oxa-6-azabicyclo[3.1.1]heptane-6-carboxamide], for which the inhibition at 1 µM stood at 100% on HDAC6 enzyme, 3% at HDAC1 enzyme and 31% on HDAC9 enzyme.

Consider `O=C(N[C@@H]1CCCC[C@H]1N1Cc2ccc(-c3noc(C(F)(F)F)n3)cc2C1=O)N1C2CCC1COC2` [Example 145, N-((1R,2R)-2-(1-oxo-6-(5-(trifluoromethyl)-1,2,4-oxadiazol-3-yl)-1,3-dihydro-2H-isoindol-2-yl)cyclohexyl)-3-oxa-8-azabicyclo[3.2.1]octane-8-carboxamide], for which the values for the inhibition at 1 µM at HDAC6 enzyme, on HDAC1 enzyme and on HDAC9 enzyme were 98%, 0% and 35%, respectively.
